One assay has as its target T1, δ opioid receptor (Mus musculus, UniProt P32300).
T1 construct: expressed in transfected cells; host or cells: HEK 293
Nature of the assay: 3H-naloxone equilibrium binding to DOR. Particulars: 3H-naloxone 2 nM tracer, mean of triplicate ± SD.

Assay [1] has as its system morphine-induced antinociception. The assay can be described thus: antagonism of morphine antinociception, 55° C. warm-water tail flick assay. It is filed as in vivo, mice. Particulars: for blockade of antinociceptive actions of morphine: 10 mg/kg i.p., morphine 20 nmol i.c.v. (A90), 55° C. tail-flick; for ID50 value against morphine-induced antinociception: morphine 20 nmol i.c.v.

For a further assay, the target named is T2, μ opioid receptor (Homo sapiens, UniProt P35372).
T2 construct: FLAG (N); expressed in transfected cells
It is filed as binding.

Assay [2] deals with acute mouse model of morphine dependence. The assay can be described thus: withdrawal jumping in acute mouse model of morphine dependence. It is filed as in vivo, mice. The conditions noted are these: 10 mg/kg i.p.; for withdrawal jumping: mice pretreated once with morphine 100 mg/kg s.c. -4 hr, 15 minutes observation; for reduction of jumping versus parent compound: acute morphine dependence.

In assay [3] the target is T3, human MOR (Homo sapiens, UniProt P35372).
T3 construct: FLAG (N); expressed in transfected cells; host or cells: HEK 293
It is filed as biochemical.

Assay [4] has as its target T3, human MOR. It is filed as cell-based.
The next assay concerns SH-SY5Y cells. Particulars: cited from earlier work.
Assay [5] has as its system chronic mouse model of morphine dependence. Nature of the assay: withdrawal jumping in chronic mouse model of morphine dependence (morphine pellet implantation). In kind it is in vivo, mice. The conditions noted are these: for dose needed to elicit 100 jumps/mouse / plateau of withdrawal jumping: i.p.
The target in a further assay is DOR (Rattus norvegicus, UniProt P33533). The conditions noted are these: cited from earlier work.
The next assay concerns drug-dependent mice. The conditions noted are these: cited from earlier work.

The text below walks through data of US6713488B2 (priority 2000, dated 2004).

The Ki is a dissociation constant, usually derived from enzyme kinetics or from competition with a known ligand. Higher therefore signals a looser hold on the target.

“Also recorded” adds a separate entry of the source.

T1 sequence (P32300 whole entry): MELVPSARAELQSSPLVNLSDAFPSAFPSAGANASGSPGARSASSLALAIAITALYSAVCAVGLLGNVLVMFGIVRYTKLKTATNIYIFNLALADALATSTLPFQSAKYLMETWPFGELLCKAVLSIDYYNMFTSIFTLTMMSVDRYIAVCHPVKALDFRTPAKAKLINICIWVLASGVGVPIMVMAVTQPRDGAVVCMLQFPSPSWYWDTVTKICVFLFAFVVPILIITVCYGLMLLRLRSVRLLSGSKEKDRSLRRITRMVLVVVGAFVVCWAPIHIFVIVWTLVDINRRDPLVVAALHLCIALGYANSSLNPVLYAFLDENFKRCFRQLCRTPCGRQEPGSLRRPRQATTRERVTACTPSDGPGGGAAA
T2 sequence (P35372 whole entry): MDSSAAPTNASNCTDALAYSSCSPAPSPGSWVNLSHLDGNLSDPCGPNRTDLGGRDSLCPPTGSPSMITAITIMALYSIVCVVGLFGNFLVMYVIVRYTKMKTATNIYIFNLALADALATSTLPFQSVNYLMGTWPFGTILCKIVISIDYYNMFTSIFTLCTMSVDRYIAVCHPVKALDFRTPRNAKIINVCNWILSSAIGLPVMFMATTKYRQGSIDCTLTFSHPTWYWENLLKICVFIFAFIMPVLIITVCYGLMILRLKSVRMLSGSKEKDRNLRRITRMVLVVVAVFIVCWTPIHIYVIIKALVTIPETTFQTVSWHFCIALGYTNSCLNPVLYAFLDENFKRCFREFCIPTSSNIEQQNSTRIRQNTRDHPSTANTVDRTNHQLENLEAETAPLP
T3 sequence (P35372 whole entry): as above
Sequence of DOR (P33533 whole entry): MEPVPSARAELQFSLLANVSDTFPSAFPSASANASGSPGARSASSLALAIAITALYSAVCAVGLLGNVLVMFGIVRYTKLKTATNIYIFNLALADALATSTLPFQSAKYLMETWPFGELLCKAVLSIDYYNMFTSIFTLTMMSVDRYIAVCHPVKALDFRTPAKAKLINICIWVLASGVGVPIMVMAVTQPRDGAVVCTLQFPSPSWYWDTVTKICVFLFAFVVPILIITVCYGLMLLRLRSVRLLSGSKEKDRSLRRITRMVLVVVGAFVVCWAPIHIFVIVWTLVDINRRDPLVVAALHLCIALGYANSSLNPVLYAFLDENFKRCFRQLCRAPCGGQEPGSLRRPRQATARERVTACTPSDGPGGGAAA

In the case of `N[C@@H]1CC[C@@]2(O)[C@H]3Cc4ccc(O)c5c4[C@@]2(CCN3CC2CC2)[C@H]1O5` [6β-Naltrexamine, 6β-naltrexamine], the Ki is 2.3 ± 0.09 nM on δ opioid receptor and 0.63 ± 0.05 nM on μ opioid receptor. In [1], the “blockade of antinociceptive actions of morphine” value (“blockade … of morphine” for short) was “only partial blockade”. Also, the withdrawal jumping result in [2] is “no withdrawal jumping”.
As for `C=CCN1CC[C@]23c4c5ccc(O)c4O[C@H]2[C@@H](O)CC[C@@]3(O)[C@H]1C5` [6α-Naloxol, 6α-naloxol], the figures for the Ki at δ opioid receptor and on μ opioid receptor were 2.1 ± 0.2 nM and 0.63 ± 0.04 nM, respectively. For the same molecule, the “blockade of inverse-agonistic effects of β-CNA” value at human MOR [3] is listed as “blocked”. For the same molecule, the “effect on basal 35S-GTPγS binding activity” value on human MOR [3] is listed as “no significant effect”. In addition, in assay [1], the “blockade … of morphine” value is recorded as “blocked”. Besides, the “effect on forskolin stimulated cAMP levels” value at human MOR [4] is “no effect”. Further, in [2], the “reduction of jumping versus parent compound” value was “approximately 50%”.
In the case of `C=CCN1CC[C@]23c4c5ccc(O)c4O[C@H]2C(=O)CC[C@@]3(O)[C@H]1C5` [Naloxone, naloxone, reference compound], the “blockade … of morphine” value in [1] was “blocked”. The “ID50 value against morphine-induced antinociception” value (“ID50 value” for short) in assay [1] (antagonist i.c.v.) turned out to be 3.4 nmol. Moreover, in assay [1] (antagonist i.p.), the “ID50 value” value is given as 1.1 mg/kg. Further, the “effect in morphine pretreated SH-SY5Y cells” value with SH-SY5Y cells (morphine pretreated) was “inverse agonist”. In the assay on SH-SY5Y cells (untreated cells), the “effect in untreated SH-SY5Y cells” value is recorded as “little effect”. Further, in assay [5], the “dose needed to elicit 100 jumps/mouse” value was roughly 0.3 mg/kg and the “plateau of withdrawal jumping” value was “approximately 200 jumps/mouse”. Also, in assay [2], the withdrawal jumping result was “aversive effects (withdrawal jumping); also recorded: precipitated robust withdrawal jumping”.
On to `Oc1ccc2c3c1O[C@H]1[C@H](O)CC[C@@]4(O)[C@@H](C2)N(CC2CC2)CC[C@]314` [6β-Naltrexol, 6β-naltrexol], for which affinity on δ opioid receptor was put at a Ki of 2.1 ± 0.01 nM. Besides, the entries for the “ID50 value” value in assay [1] (antagonist i.c.v.) and in assay [1] (antagonist i.p.) were 2.3 nmol and 1.0 mg/kg, respectively. Besides, the “dose needed to elicit 100 jumps/mouse” value in [5] was determined as 10 mg/kg. Besides, the withdrawal jumping result in assay [2] is on record as “no withdrawal jumping”.
In the case of `N[C@H]1CC[C@@]2(O)[C@H]3Cc4ccc(O)c5c4[C@@]2(CCN3CC2CC2)[C@H]1O5` [6α-naltrexamine], the “effect on basal 35S-GTPγS binding activity” value on human MOR [3] is on record as “no significant effect”.
On to `CC(=O)N[C@@H]1CC[C@@]2(O)[C@H]3Cc4ccc(O)c5c4[C@@]2(CCN3CC2CC2)[C@@H]1O5` [6β-naltrexamide], for which, at human MOR [3], the “effect on basal 35S-GTPγS binding activity” value is reported as “no significant effect”. Further, the “blockade … of morphine” value in assay [1] was “effect similar to 6β-naltrexamine”. Besides, the “potency in eliciting withdrawal jumping (in words)” value in assay [5] is reported as “low potency”. For the same molecule, the withdrawal jumping entry in assay [2] is on record as “no withdrawal jumping”.
On to `C=CCN1CC[C@]23c4c5ccc(O)c4O[C@H]2[C@H](O)CC[C@@]3(O)[C@H]1C5` [6β-Naloxol, 6β-naloxol], for which the figures for the Ki on δ opioid receptor and on μ opioid receptor were 2.3 ± 0.05 nM and 1.1 ± 0.02 nM, respectively. Besides, the “effect on basal 35S-GTPγS binding activity” value at human MOR [3] is reported as “no significant effect”. Further, the “blockade … of morphine” value in assay [1] is reported as “only partial blockade”. Further, the “effect on forskolin stimulated cAMP levels” value on human MOR [4] was “no effect”. Besides, the withdrawal jumping entry in assay [2] is “no withdrawal jumping”.
For the molecule `O=C(/C=C/c1ccc(Cl)cc1)N[C@@]12CCC(=O)[C@@H]3Oc4c(O)ccc5c4[C@@]31CCN(CC1CC1)[C@@H]2C5` [C-CAM, clocinnamox, reference compound], the “effect on basal 35S-GTPγS binding activity” value at human MOR [3] was “decreased”. Besides, at human MOR [4], the “effect on forskolin stimulated cAMP levels” value is listed as “increased”. For the same molecule, at DOR, the “intrinsic activity at DOR” value is recorded as “inverse agonists”.
Take “D-Phe-Cys-Tyr-D-Trp-Arg-Thr-Pen-Thr-Nh2 [CTAP]”: the “withdrawal elicited compared with naloxone” value in the assay on drug-dependent mice is “significantly less withdrawal than naloxone”.
`C=C1CC[C@@]2(O)[C@H]3Cc4ccc(O)c5c4[C@@]2(CCN3CC2CC2)[C@H]1O5` [nalmefene, reference compound]: at human MOR [3], the “effect on basal 35S-GTPγS binding activity” value is recorded as “decreased”.
With `O=C1/C(=C/c2ccccc2)C[C@@]2(O)[C@H]3Cc4ccc(O)c5c4[C@@]2(CCN3CC2CC2)[C@H]1O5` [BNTX, 7-benzylidene-7-dehydronaltrexone, reference compound], at human MOR [3], the “effect on basal 35S-GTPγS binding activity” value is given as “decreased”. The “effect on forskolin stimulated cAMP levels” value on human MOR [4] is reported as “increased”. Besides, the “intrinsic activity at DOR” value at DOR was “inverse agonists”.
Turning to `COC(=O)C=CC(=O)NC1CCC2(O)C3Cc4ccc(O)c5c4C2(CCN3CC2CC2)C1O5.Cl` (stereo not drawn) [β-FNA, β-funaltrexamine HCl, reference compound], the “effect on basal 35S-GTPγS binding activity” value on human MOR [3] was “no significant effect”.
As to `Oc1ccc2c3c1O[C@H]1[C@H](O)CC[C@@]4(O)[C@@H](C2)N(CC2CC2)CC[C@]314` [6α-Naltrexol, 6α-naltrexol], at δ opioid receptor, affinity was put at a Ki of 2.4 ± 0.1 nM. Also, the “blockade … of morphine” value in assay [1] is listed as “blocked”. Further, in assay [2], the “reduction of jumping versus parent compound” value is listed as “approximately 50%”.
In the case of `O=C1CC[C@@]2(O)[C@H]3Cc4ccc(O)c5c4[C@@]2(CCN3CC2CC2)[C@H]1O5` [Naltrexone, naltrexone, reference compound], in assay [1], the “blockade … of morphine” value is given as “blocked”. The “ID50 value” value in assay [1] (antagonist i.c.v.) worked out at 0.26 nmol. In assay [1] (antagonist i.p.), the “ID50 value” value stood at 0.22 mg/kg. Moreover, in assay [5], the “dose needed to elicit 100 jumps/mouse” value is recorded as “approximately 0.1 mg/kg” and the “plateau of withdrawal jumping” value is on record as “approximately 200 jumps/mouse”. The withdrawal jumping entry in [2] is “aversive effects (withdrawal jumping); also recorded: precipitated robust withdrawal jumping”.
